This is an account of results in patent US4283420A, “Pharmaceutically active cyclohexyl compounds and their preparation” (Labaz, priority 1978, dated 1981).

Data set [1] can be described thus: Acute toxicity, peroral. Particulars: mouse, in vivo, po. As for the experimental part:
In order to locate the boundary separating the pharmacological effects from the toxicity of the products, a very approximate assessment of the toxicity was carried out on mice (batches of 10 animals) after peroral treatment.

Data set [2] relates to male OFl mice. In words: Pentetrazole seizure (mortality after i.p. pentetrazole 125 mg/kg). The data set is classed as in vivo. Particulars: for ED50: Mus musculus, po, 0.25 h, read-out: Pentetrazole seizure, ED50; for Pentetrazole seizure, % protection: peroral, 15 minutes. Here is the method:
This test was carried out on batches of 10 male OFl mice which had fasted since the day before and were placed in individual cages, in accordance with the method of Cheymol (J.) Acta. Pharmacol., (1950), 2, 1-55.
The treatments were carried out perorally 15 minutes before intraperitoneal (i.p.) injection of a solution of pentetrazole (125 mg/kg).
The mortality is recorded 3 hours after this injection.
It is to be noted that the 50% effective doses (ED50), where these have been determined, were calculated by the method of MOOD (J. Am. Statist. Assoc., (1965), 60, 967-78).

For data set [3], the system named is mouse. As to the kind of experiment: Ouabain seizure. It counts as in vivo. Particulars: po, 0.25 h, read-out: Ouabain seizure, ED50. Here is the method: Ouabain was administered intra-ventricularly at a dose of 5 γ/mouse in a volume of 0.02 ml.
Data set [4] deals with male Swiss mice. In words: Maximum electrical seizure. It counts as in vivo. Particulars: for ED50: Mus musculus, po, 0.25 h, read-out: Maximum electrical seizure, ED50; for Maximum electrical seizure, % protection: peroral, 15 minutes. The source says:
Maximum electrical seizure
The technique used is that recommended by GOODMAN (L. S.), SING-GREWALD (M.), BROWN (V. C.) and […] (E. A.), Am.
The animals tested are male Swiss mice grouped into batches of 10. The normal threshold of the electric shock which is capable of causing tonic extension of the front paws is first determined for each animal.

Data set [5] deals with male mice. In words: Sedative activity: Rotarod test. Particulars: peroral, mice. The data set is classed as in vivo. Here is the method:
This test is used for the purpose of assessing the ability of the animals to coordinate their movements. It uses a wooden cylinder which has a diameter of 4.8 cm and revolves at a speed of 4 revolutions/minute. The test is carried out on male mice weighing about 22 g. The products are administered perorally (p.o.) to batches of 10 animals per dose. The animals are placed on the apparatus 15 minutes after administration of the product. The percentage of mice which lose their equilibrium reflex, that is to say which become incapable of retaining their balance on the cylinder for a period of 2 minutes, is noted.
Using the regression straight line method, a 50% neurotoxic dose (NTD 50) is calculated, which thus expresses the average level of the first neuromuscular effects under the influence of the studied product.
In general terms: The rotarod test checks motor coordination on a turning rod.

Data set [6] concerns mice. In words: β-Mercaptopropionic acid seizure. The data set is classed as in vivo. Particulars: Mus musculus, po, 0.25 h, read-out: β-Mercaptopropionic acid seizure, ED50. Here is the method:
β-Mercaptopropionic acid seizure
β-Mercaptopropionic acid is an inhibitor of glutamatedecarboxylase (GAD), which is an enzyme which catalyses the conversion of glutamate to γ-aminobutyric acid (GABA). Its action thus manifests itself in a lowering of the GABA level and the occurrence of general tonico-clonic seizures 3 to 4 minutes after it has been administered. β-Mercaptopropionic acid was administered to mice intraperitoneally at a dose of 40 mg/kg.

The test system of data set [7] is mice. As to the kind of experiment: Anoxia as a result of confinement. It counts as in vivo. Particulars: Mus musculus, ip, read-out: Anoxia as a result of confinement, % increase in the survival time. Here is the method:
Anoxia as a result of confinement
Mice (in batches of 20) are placed in a 200 cm^3 hermetically sealed chamber (a wide-mouthed glass vessel) which is under normal pressure and has a normal content of atmospheric oxygen. All of the treatments are administered intraperitoneally immediately before introduction into the chamber. The animal is considered to be dead at the moment when breathing stops.
Since the wide-mouthed vessels chosen are very small, the motor activity of the animals is extremely low and this eliminates, in principle, the possibility of a positive result due to a sedative effect.
Therefore, the percentage increase in the survival time of the treated animals is noted, relative to the batch.

The mark [8] stands for this setting: ouabain 5 γ/mouse intra-ventricularly, measured 15 minutes after peroral treatment.

Like-named read-outs stand apart in the source and are kept apart here.

By mortality is commonly meant the share of the test organisms that died. The low end stands for more survivors, the high end for fewer survivors. For orientation: ED50 means the dose that gives a 50% effect, or the effect in half of the subjects. In data set [1] (1100 mg/kg), `C=C(Cl)CC1(C(=O)O)CCCCC1` [Example 19] showed a mortality of 10%. Also, the ED50 in data set [2] (Table IV, mice, measured 15 minutes after peroral treatment) stood at 94 mg/kg; in data set [3] (setting [8]), 579 mg/kg; in data set [4] (mice, measured 15 minutes after peroral treatment) it was 366 mg/kg; in data set [6] (β-mercaptopropionic acid 40 mg/kg i.p., mice, 15 minutes after peroral treatment), 300 mg/kg. Also, in data set [5] (at 700 mg/kg), the “Rotarod test, % of failures” value is on record as 30%. The ILS at 240 mg/kg in data set [7] (at 240 mg/kg, intraperitoneal, mice) was found to be 45%.
Regarding `C#CC1(C(=O)O)CCCCC1` [Example 17], the “Pentetrazole seizure, % protection” value in data set [2] (at 170 mg/kg, mice) was determined as 30%. In addition, the ED50 in data set [3] (setting [8]) is 933 mg/kg. The “Maximum electrical seizure, % protection” value in data set [4] (at 170 mg/kg, mice) was 13%. For the same compound, the “Rotarod test, % of failures” value in data set [5] (at 500 mg/kg) is given as 0%. For the same compound, the ILS at 210 mg/kg in data set [7] (at 210 mg/kg, intraperitoneal, mice) turned out to be 23%.
Consider `C=CCC1(C(=O)[O-])CCCCC1.[Na+]` [Example 22, Sodium 1-allyl-1-cyclohexyl-carboxylate], for which the ED50 worked out at 154 mg/kg in data set [2] and 638 mg/kg in data set [3] (setting [8]). Further, in data set [4] (at 200 mg/kg, mice), the “Maximum electrical seizure, % protection” value came out at 80%. Also, the “Rotarod test, % of failures” value in data set [5] (at 600 mg/kg) is 20%. Moreover, the ILS at 240 mg/kg in data set [7] was 59%.
As for `C=C(Cl)C1(C(=O)O)CCCCC1` [Example 18], the “Pentetrazole seizure, % protection” value in data set [2] (at 200 mg/kg, mice) came to 40%. In addition, in data set [3] (setting [8]), the ED50 came out at 851 mg/kg. For the same compound, the “Rotarod test, % of failures” value in data set [5] (at 600 mg/kg) is on record as 0%. For the same compound, the ILS at 260 mg/kg in data set [7] (at 260 mg/kg, intraperitoneal, mice) was found to be 40%.
`C#CCC1(C(=O)[O-])CCCCC1.[Na+]` yielded a mortality in data set [1] (at 950 mg/kg, peroral, mice) of 10%. The ED50 in data set [2] came out at 120 mg/kg; in data set [3] (Mus musculus) it was 507 mg/kg; in data set [4], 478 mg/kg; in data set [6], 245 mg/kg. The “Rotarod test, % of failures” value in data set [5] (at 550 mg/kg) is recorded as 40%. In addition, in data set [7], the ILS at 280 mg/kg was 48%.
